One block for each compound: values may come before it.
How the values were obtained:
[1] = molecular target: T1, CYP3A4-M (Homo sapiens, UniProt P08684); assay: Time-dependent inhibition of CYP450 enzymes in human liver microsomes: CYP3A4-M (midazolam probe); type: in vitro ADME; settings: for (% Activity NADPH T0)/(% Activity NADPH T30): CYP3A4-M (midazolam probe); for fold change in enzyme activity (time dependent inhibition), 3A4: human liver microsomes, midazolam probe, time zero vs 30 minutes incubation, 25 and 50 μM
T1 construct: from tissue; host or cells: pooled human liver microsomes
Experimental: (§1) An assessment of the time-dependent Inhibitory Potential of the test compounds against Principal Human Cytochrome P450 Isozymes using Human Liver Microsomes was also carried out using standard methods (Grimm et al, Drug Metab. Dispos., Jul; 37(7):1355-70. doi: 10.1124/dmd.109.026716, 2009). Pooled human microsomes and selective CYP probe substrates were used for in vitro assessment of test compounds at 25 and 50 μM as time-dependent inhibitors of […] human hepatic cytochrome P450 isozymes (CYP1A2, 2B6, 2C9, 2C19, 2D6, and 3A4). LC-MS/MS was used to quantify metabolite formation. The inhibition of each P450 enzyme in human liver microsomes was measured as the percentage decrease in the activity of marker metabolite formation as measured by LC-MS/MS compared to non-inhibited controls (=100% activity) at time zero and after 30 minutes incubation. The occurrence of any time dependent inhibition was then expressed as the fold change in enzyme activity at time zero relative to the activity after 30 minutes incubation. The time dependent inhibition for the compound 5-(3,4-difluorobenzyl)-8-((1 r,4r)-4-methylcyclohexyl)-6,9-dioxo-2,5, 8-triazaspiro [3.5]nonane-2-carbaldehyde (Compound 1) against CYP1A2, […], CYP2C8, CYP2C9, CYP2C19, CYP2D6, CYP3A4-M and CYP3A4-T is shown in Table B-12.

[2] = molecular target: T2, CYP3A4 (Homo sapiens, UniProt P08684); assay: as above; type: in vitro ADME; settings: human, pooled human liver microsomes, CYP3A4-M (midazolam probe); for activity at 30 min, 25 µM / activity at 30 min, 50 µM: 30 minutes incubation, read-out: % Activity NADPH T30; for activity at 0 min, 25 µM / activity at 0 min, 50 µM: time zero, read-out: % Activity NADPH T0
T2 construct: from tissue; host or cells: pooled human liver microsomes
Experimental: as §1

[3] = molecular target: T3, CYP3A4-T (Homo sapiens, UniProt P08684); assay: Time-dependent inhibition of CYP450 enzymes in human liver microsomes: CYP3A4-T (testosterone probe); type: in vitro ADME; settings: for (% Activity NADPH T0)/(% Activity NADPH T30): CYP3A4-T (testosterone probe); for fold change in enzyme activity (time dependent inhibition), 3A4: human liver microsomes, testosterone probe, time zero vs 30 minutes incubation, 25 and 50 μM
T3 construct: from tissue; host or cells: pooled human liver microsomes
Experimental: as §1

[4] = molecular target: T2, CYP3A4; assay: as above; type: in vitro ADME; settings: human, pooled human liver microsomes, CYP3A4-T (testosterone probe); for activity at 30 min, 25 µM / activity at 30 min, 50 µM: 30 minutes incubation, read-out: % Activity NADPH T30; for activity at 0 min, 25 µM / activity at 0 min, 50 µM: time zero, read-out: % Activity NADPH T0
Experimental: as §1

[5] = Monkey single dose pharmacokinetics; type: in vivo; settings: male, plasma, iv, Cynomolgus Monkey; for Vd: read-out: Vss
Experimental: Non-naïve Male Cynomolgus Monkey (2-5 years of age, body weight 2-5 kg) used in this study were obtained from Topgene Biotechnology. All animals for IV administration had free access to food and water; all animals for PO were fasted overnight prior to dosing and were fed approximately 6 hours after dosing. The IV dose solution was prepared in 10% DMA/50% PG/40% HPOCD solution (40% w/v aqueous HPOCD) at a concentration of 1.0 mg/mL. The oral dose suspension was prepared by suspending the compound in 0.5% HPMC/0.1% Tween 80 in distilled water at a concentration of 0.2 mg/mL. Concentrations of IV and PO doses were measured at the end of the study. PK parameters were calculated using the nominal dose values if the measured values were within 20% of the nominal values. Blood samples were collected by venipuncture of peripheral veins except the dosing vein at pre-dose, 5 15, 30 min, 1, 2, 4, 6, 8, 24 and 48 h post-dose. Blood samples were centrifuged and resultant plasma was frozen for bioanalysis. Plasma samples were stored at −80° C. before analysis. Plasma samples were analyzed for compound concentrations using the LC/MS/MS method. Briefly, a 50 μL aliquot of each plasma sample was mixed with 100 μL of acetonitrile that contained an internal standard. The mixture was vortexed and centrifuged. Ten (10) p L of the resulting solution was injected onto a reverse-phase C18 column and the resultant peaks detected on a LC/MS/MS equipped with a turbo ionspray ionization source. Sample concentrations below the limit of quantification (BLQ) were treated as zero for PK calculations. PK parameters were estimated from individual animals using noncompartmental analysis of the concentration-time data (Phoenix WinNonLin software, version 64; Pharsight, Mountain View, CA). The elimination rate constant (k) was calculated as the absolute value of the slope of the linear regression of logarithm (log) of the concentration versus time for the last three data points of the concentration-time profiles. Apparent elimination half-life (t½) values were calculated as 1n(2)/k. Area under the concentration-time curve (AUC) values were estimated using linear trapezoidal method. AUC values were calculated from the dosing time to the last measurable concentration. AUC∞ values were calculated as the sum of the corresponding AUC and the ratio of the last detectable concentration divided by k. Plasma clearance (CL) was calculated from Dose/AUC.. Mean resident time extrapolated to infinity (MRT∞) was estimated by moment analysis. Vss was calculated from MRT. X CL. Maximum concentration (Cmax) and time to reach Cmax (tmax) were recorded as observed. As this was a cross-over study, bioavailability was calculated dAUC∞,po/dAUC∞,iv ×100% where dAUC was the dose normalized AUC value from the same animal given IV and PO dose. Compounds tested were prepared in accordance with the synthetic procedures described herein.

[6] = Long-term storage stability of the solid (1, 3, 6 months); type: physicochemical
Excerpt: For long-term (1 month or longer) stability experiments, solid material was placed into LDPE bags and sealed in a HDPE container at elevated storage conditions, unless otherwise stated.

T1 sequence (P08684 whole entry): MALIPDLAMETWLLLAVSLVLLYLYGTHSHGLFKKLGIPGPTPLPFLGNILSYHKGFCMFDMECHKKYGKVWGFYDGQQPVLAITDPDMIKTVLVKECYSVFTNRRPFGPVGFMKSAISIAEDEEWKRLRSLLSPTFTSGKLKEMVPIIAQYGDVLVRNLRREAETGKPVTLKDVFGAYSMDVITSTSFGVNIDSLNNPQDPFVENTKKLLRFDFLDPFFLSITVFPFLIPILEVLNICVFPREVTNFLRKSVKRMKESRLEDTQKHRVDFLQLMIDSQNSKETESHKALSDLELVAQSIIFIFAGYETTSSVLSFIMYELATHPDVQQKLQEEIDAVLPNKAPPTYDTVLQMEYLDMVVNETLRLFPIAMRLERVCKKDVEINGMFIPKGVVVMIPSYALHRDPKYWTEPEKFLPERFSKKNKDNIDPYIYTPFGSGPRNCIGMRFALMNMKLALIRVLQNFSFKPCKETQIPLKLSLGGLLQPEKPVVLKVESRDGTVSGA
T2 sequence (P08684 whole entry): as above
T3 sequence (P08684 whole entry): as above

Structure (SMILES): O=C1[C@H](C2COC2)N(Cc2ccc(C(F)(F)F)cc2)C(=O)CN1c1ncc(Cl)cc1F [Comparator C, (S)-1-(5-chloro-3-fluoropyridin-2-yl)-3-(oxetan-3-yl)-4-(4-(trifluoromethyl)benzyl)piperazine-2,5-dione, reference compound]
(% Activity NADPH T0)/(% Activity NADPH T30) ([1]; 25 μM): 1.6
(% Activity NADPH T0)/(% Activity NADPH T30) ([1]; 50 μM): 1.7
fold change in enzyme activity (time dependent inhibition), 3A4 [1]: > 1.5 fold
activity at 30 min, 25 µM [2]: 48%
activity at 0 min, 25 µM [2]: 75%
activity at 30 min, 50 µM [2]: 33%
activity at 0 min, 50 µM [2]: 57%
(% Activity NADPH T0)/(% Activity NADPH T30) ([3]; 25 μM): 1.8
(% Activity NADPH T0)/(% Activity NADPH T30) ([3]; 50 μM): 1.8
fold change in enzyme activity (time dependent inhibition), 3A4 [3]: > 1.5 fold
activity at 30 min, 25 µM [4]: 23%
activity at 0 min, 25 µM [4]: 41%
activity at 30 min, 50 µM [4]: 19%
activity at 0 min, 50 µM [4]: 35%
clearance [5]: 13.8 mL/min/kg
half-life [5]: 11.6 h
Vd [5]: 12 L/kg

Structure (SMILES): O=CN1CC2(C1)C(=O)N([C@H]1CC[C@H](C(F)F)CC1)CC(=O)N2Cc1ccc(C(F)(F)F)cc1 [Comparator E, 8-((1r,4r)-4-(difluoromethyl)cyclohexyl)-6,9-dioxo-5-(4-(trifluoromethyl)benzyl)-2,5,8-triazaspiro[3.5]nonane-2-carbaldehyde]
clearance [5]: 3.4 mL/min/kg
half-life [5]: 16 h
Vd [5]: 4.35 L/kg

Structure (SMILES): C[C@H]1CC[C@H](N2CC(=O)N(Cc3ccc(F)c(F)c3)C3(CN(C=O)C3)C2=O)CC1 [Compound 1, 5-(3,4-difluorobenzyl)-8-((1r,4r)-4-methylcyclohexyl)-6,9-dioxo-2,5,8-triazaspiro[3.5]nonane-2-carbaldehyde]
(% Activity NADPH T0)/(% Activity NADPH T30) ([1]; 25 μM): 0.8
(% Activity NADPH T0)/(% Activity NADPH T30) ([1]; 50 μM): 0.7
fold change in enzyme activity (time dependent inhibition), 3A4 [1]: ≤ 1.2 fold
activity at 30 min, 25 µM [2]: 88%
activity at 0 min, 25 µM [2]: 70%
activity at 30 min, 50 µM [2]: 78%
activity at 0 min, 50 µM [2]: 57%
(% Activity NADPH T0)/(% Activity NADPH T30) ([3]; 25 μM): 0.9
(% Activity NADPH T0)/(% Activity NADPH T30) ([3]; 50 μM): 0.8
fold change in enzyme activity (time dependent inhibition), 3A4 [3]: ≤ 1.2 fold
activity at 30 min, 25 µM [4]: 90%
activity at 0 min, 25 µM [4]: 80%
activity at 30 min, 50 µM [4]: 98%
activity at 0 min, 50 µM [4]: 83%
clearance [5]: 11.6 mL/min/kg
half-life [5]: 9.94 h
Vd [5]: 8.89 L/kg

Next, values leading:

clearance [5]: 6.92 mL/min/kg
half-life [5]: 18.1 h
Vd [5]: 12.4 L/kg
Structure (SMILES): CC(=O)N1CC2(C1)C(=O)N(c1ccc(C#N)cc1F)CC(=O)N2Cc1ccc(C(F)(F)F)cc1 [Comparator D, 4-(2-acetyl-6,9-dioxo-5-(4-(trifluoromethyl)benzyl)-2,5,8-triazaspiro[3.5]nonan-8-yl)-3-fluorobenzonitrile]

Assay ([6]; 25° C./60% RH, 1 month): 99.0 % w/w
Purity ([6]; 25° C./60% RH, 1 month): 99.1%
Total Impurities ([6]; 25° C./60% RH, 1 month): 0.92%
Water Content ([6]; 25° C./60% RH, 1 month): 0.02 % w/w
Assay ([6]; 25° C./60% RH, 3 months): 98.8 % w/w
Purity ([6]; 25° C./60% RH, 3 months): 99.1%
Total Impurities ([6]; 25° C./60% RH, 3 months): 0.91%
Water Content ([6]; 25° C./60% RH, 3 months): 0.01 % w/w
Assay ([6]; 25° C./60% RH, 6 months): 99.2 % w/w
Total Impurities ([6]; 25° C./60% RH, 6 months): 0.93%
Water Content ([6]; 25° C./60% RH, 6 months): 0.09 % w/w
XRPD ([6]; 25° C./60% RH, 6 months): Form II
Assay ([6]; 40° C./75% RH, 1 month): 98.6 % w/w
Purity ([6]; 40° C./75% RH, 1 month): 99.1%
Total Impurities ([6]; 40° C./75% RH, 1 month): 0.92%
Water Content ([6]; 40° C./75% RH, 1 month): 0.01 % w/w
Assay ([6]; 40° C./75% RH, 3 months): 97.9 % w/w
Purity ([6]; 40° C./75% RH, 3 months): 99.1%
Total Impurities ([6]; 40° C./75% RH, 3 months): 0.9%
Water Content ([6]; 40° C./75% RH, 3 months): 0.01 % w/w
Assay ([6]; 40° C./75% RH, 6 months): 99.5 % w/w
Total Impurities ([6]; 40° C./75% RH, 6 months): 0.91%
Water Content ([6]; 40° C./75% RH, 6 months): 0.06 % w/w
XRPD ([6]; 40° C./75% RH, 6 months): Form II
Assay ([6]; Initial): 99.1 % w/w
Purity ([6]; Initial): 99.1%
Total Impurities ([6]; Initial): 0.91%
Water Content ([6]; Initial): 0.02 % w/w
XRPD ([6]; Initial): Form II
Structure (SMILES): C[C@H]1CC[C@H](N2CC(=O)N(Cc3ccc(F)c(F)c3)C3(CN(C=O)C3)C2=O)CC1 [Form II, 5-(3,4-difluorobenzyl)-8-((1r,4r)-4-methylcyclohexyl)-6,9-dioxo-2,5,8-triazaspiro[3.5]nonane-2-carbaldehyde]
